This is an account of results in US11091428B2 (HAPLOGEN GMBH, priority 2016, dated 2021).

One experiment deals with T1, PLA2G16 (Homo sapiens, UniProt P53816).
T1 construct: Hexa-His (N); made in house; host or cells: E. coli BL21(DE3)
T1 sequence (P53816 1-162): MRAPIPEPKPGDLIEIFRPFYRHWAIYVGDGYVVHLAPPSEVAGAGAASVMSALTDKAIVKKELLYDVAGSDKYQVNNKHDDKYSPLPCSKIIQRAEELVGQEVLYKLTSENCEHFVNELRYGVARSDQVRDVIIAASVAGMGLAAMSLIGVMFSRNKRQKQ
Nature of the experiment: Enzyme activity assay for PLA2G16 (Red/Green BODIPY PC-A2 fluorescence). The settings on record: His-tagged PLA2G16, 4 min pre-incubation, 2 nM to 50 μM; read-out: IC50 values of the compounds determined in the enzyme activity assay for PLA2G16. Type of experiment: biochemical. The procedure, abridged: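 N-His-tagged human PLA2G16 from E. coli, Ni-NTA purified. Pre-incubated 4 min with compound (2 nM–50 μM final) in pH 8.5 Tris/NaCl buffer with 5 mM glutathione, then BODIPY PC-A2 in DOPC/DOPG/cholesterol vesicles added. Fluorescence (ex 480/em 530 nm) increase over 10 min taken as activity; IC50 by non-linear regression.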

Experiment [1] has as its system picornaviruses (CVB1, HRV-A2, HRV-A23, EV-68). Briefly: Anti-picornavirus cytopathic effect (CPE) reduction assay on HeLa H1 cells. The settings on record: Enterovirus B, HeLa H1, 48 h, HeLa H1 cells, 48 h, category from averaging the EC50 values from four picornaviruses (CVB1, HRV-A2, HRV-A23, EV68); read-out: EC50 values of the compounds determined in the anti-picornavirus assay. The format is cell-based. The procedure: The antiviral activity of selected compounds was tested using a cytopathic effect (CPE) reduction assay on HeLa H1 cells (ATCC CRL-1958). Briefly, cells were seeded in 96-well dishes (2×10^4 cells/well) in DMEM medium (Life technologies) supplemented with 10% FBS and PenStrep solution (100 U/mL Penicillin and 100 μg/mL streptomycin) and incubated at 37° C., 5% CO2 ovemight. The next day, cells were pre-treated with serial dilutions of the compound in DMEM medium supplemented with 2% FBS and PenStrep for 2 h at 37° C., 5% CO2. Next, cells were infected with virus (CVB1, HRV-A2, HRV-A23, EV-68) at an multiplicity of infection (MOI) which results in a complete virus-induced CPE within 2 days in control wells (infected and vehicle-treated). After 48 h, supematants were aspirated and 50 μl/well of CellTiterBlue reagent (Promega) diluted 1:5 in DMEM+2% FBS, was added to the cells. Plates were returned to the incubator and allowed to develop for 1.5 h. After that, plates were equilibrated to RT and subsequently, fluorescence was recorded (Excitation wavelength: 560 nm; emission wavelength: 590 nm) using a SpectraMax M5 multimode plate reader. Viability of cells was calculated according to the formula: V=(RFUCpd−RFUVeh/(RFUM−RFUVeh), where RFUCpd refers to infected and compound-treated cells, RFUVeh to infected and vehicle-treated cells and RFUM to uninfected and vehicle treated cells. Half-maximal effective concentrations (EC50) were calculated by non-linear regression analysis using the drc package in R (R Development. Core Team, 2005). EC50 categories as presented in Table 2 were calculated by averaging the EC50 values from four picornaviruses (CVB1, HRV-A2, HRV-A23, EV68).
Background: Protection from cytopathic effect is a common read-out in antiviral testing.

Broadly, the IC50 is the concentration needed to halve the response being measured. In general, EC50 refers to the concentration giving half of the maximal effect. Consider `CC[C@H](C)NC(=O)C(=O)C(C)N(C=O)c1ccccc1OC` (stereo partly drawn) [FP 106, N-[(2S)-Butan-2-yl]-3-[N-(2-methoxyphenyl)formamido]-2-oxobutanamide], for which the IC50 on PLA2G16 is less than 1000 nM. In addition, in experiment [1], the EC50 lay within 1000 to 10000 nM.
For `COc1ccccc1N(C=O)C(C)C(=O)C(=O)NCc1cc(F)cc(Cl)c1` (centres unmarked) [FP 94, N-[(3-Chloro-5-fluorophenyl)methyl]-3-[N-(2-methoxyphenyl)formamido]-2-oxobutanamide], at PLA2G16, the IC50 is less than 1000 nM. In addition, the EC50 in experiment [1] is less than 1000 nM.
Consider `COc1ccccc1N(C=O)C(C(=O)C(=O)NCc1cccc(Cl)c1)C(C)C` (centres unmarked) [FP 35, N-[(3-Chlorophenyl)methyl]-3-[N-(2-methoxyphenyl)formamido]-4-methyl-2-oxopentanamide], for which the concentration for half-maximal inhibition (IC50) at PLA2G16 is less than 1000 nM. Further, the EC50 in experiment [1] fell in the range of 1000 to 10000 nM.
Taken in the same sequence, the figures for `CC(C)C(=O)N(C)C(C)C(=O)C(=O)NCC1CCCCC1` (centres unmarked) [FP 144, N-(Cyclohexylmethyl)-3-(N,2-dimethylpropanamido)-2-oxobutanamide] were less than 1000 nM and 1000 to 10000 nM.
Taken in the same sequence, the figures for `O=C(NC1CC(F)C1)C(=O)[C@H]1CCC(=O)N1Cc1ccccc1` (stereo partly drawn) [FP 294, 2-[(2R)-1-Benzyl-5-oxopyrrolidin-2-yl]-N-(3-fluorocyclobutyl)-2-oxoacetamide] were less than 1000 nM and less than 1000 nM.
Turning to `CC(NS(=O)(=O)c1ccccc1)C(=O)C(=O)NCC1CC1` (centres unmarked) [FP 187, 3-Benzenesulfonamido-N-(cyclopropylmethyl)-2-oxobutanamide], the IC50 on PLA2G16 was less than 1000 nM. In addition, the EC50 in experiment [1] lay in the range of 1000 to 10000 nM.
Taken in the same sequence, the figures for `CC(C)C(=O)N(C)C(C)C(=O)C(=O)NCC1CC1` (centres unmarked) [FP 151, N-(Cyclopropylmethyl)-3-(N,2-dimethylpropanamido)-2-oxobutanamide] were 1000 to 10000 nM and more than 10000 nM.
Turning to `C[C@@H]1CC(=O)N(Cc2ccccc2)[C@H]1C(=O)C(=O)NC1CC1` (single isomer, unassigned) [FP 340], the IC50 on PLA2G16 is less than 1000 nM. Further, the EC50 in experiment [1] was less than 1000 nM.
For `COc1ccccc1N(C=O)C(C)C(=O)C(=O)N[C@@H](C)C(C)C` (stereo partly drawn) [FP 108, 3-[N-(2-Methoxyphenyl)formamido]-N-[(2S)-3-methylbutan-2-yl]-2-oxobutanamide], the IC50 on PLA2G16 is less than 1000 nM. Moreover, in experiment [1], the EC50 was less than 1000 nM.
With `CC(C(=O)C(=O)NCC1CC1)N(C)S(=O)(=O)c1ccccc1` (centres unmarked) [FP 221, N-(Cyclopropylmethyl)-3-(N-methylbenzenesulfonamido)-2-oxobutanamide], the 50% inhibitory concentration (IC50) on PLA2G16 was less than 1000 nM. In addition, the EC50 in experiment [1] is more than 10000 nM.
Regarding `COc1ccc(CNC(=O)C(=O)C(C)N(C=O)c2ccccc2OC)cc1` (centres unmarked) [FP 92, 3-[N-(2-Methoxyphenyl)formamido]-N-[(4-methoxyphenyl)methyl]-2-oxobutanamide], the IC50 at PLA2G16 is less than 1000 nM. Besides, the EC50 in experiment [1] is 1000 to 10000 nM.
Consider `CC(C(=O)C(=O)NCC1CCC1)N(C=O)Cc1ccccc1` (centres unmarked) [FP 201, 3-(N-Benzylformamido)-N-(cyclobutylmethyl)-2-oxobutanamide], for which, at PLA2G16, the IC50 is less than 1000 nM. Also, the EC50 in experiment [1] is less than 1000 nM.
Regarding `CC(C)C(=O)N1CCC(CN(C=O)C(C)C(=O)C(=O)NCC2CCCCC2)CC1` (centres unmarked) [FP 78, N-(Cyclohexylmethyl)-3-(AN{[1-(2-methylpropanoyl)piperidin-4-yl]methyl}formamido)-2-oxobutanamide], at PLA2G16, the IC50 lay in the range of 1000 to 10000 nM. Also, in experiment [1], the EC50 was more than 10000 nM.
For `CC(NC(=O)c1ccncc1)C(=O)C(=O)NCC1CCCCC1` (centres unmarked) [FP 205, N-(Cyclohexylmethyl)-2-oxo-3-[(pyridin-4-yl)formamido]butanamide] the same measures were less than 1000 nM and 1000 to 10000 nM.
With `O=C(NC1CC1)C(=O)C1CCC(=O)N1CC1CCCC1` (centres unmarked) [FP 279, 2-[1-(Cyclopentylmethyl)-5-oxopyrrolidin-2-yl]-N-cyclopropyl-2-oxoacetamide], the IC50 on PLA2G16 is less than 1000 nM. Besides, in experiment [1], the EC50 fell in the range of 1000 to 10000 nM.
For `CCCC(NC(=O)c1ccccc1)C(=O)C(=O)NCC1CC1` (centres unmarked) [FP 154, N-(Cyclopropylmethyl)-2-oxo-3-(phenylformamido)hexanamide] the same measures were less than 1000 nM and 1000 to 10000 nM.
